Patent US20030134865A1, “Modulation of histone deacetylase” (priority 2003, published 2003)
≈ marks a conversion by molar mass, not a printed value. Where “and” joins values, the source holds several entries; their conditions need not be identical. Identical values can stand only once.

Assays:
[1] = system: GM-CSF release, A549 cells; assay: GM-CSF release from A549 cells (ELISA)
Method: GM-CSF ELISA: Determination of GM-CSF expression was measured by sandwich ELISA (Pharmingen, Lugano, Switzerland) according to the manufacturer's instructions.

HAT activity = assay: Direct effect on HAT activity; type: biochemical; details: IBMX 500 μM, rolipram 10 μM, CGS-15943 10 μM
HDAC activity = assay: Direct effect on HDAC activity of nuclear proteins from untreated A549 cells; type: biochemical; details: for direct effect on HDAC activity: nuclear extracts, IBMX 500 μM, rolipram 10 μM, CGS-15943 10 μM; for effect on theophylline-induced increased HDAC activity: inhibitor 1 μM
Method: FIG. 13. […] (a) Direct effect of the PDE4 inhibitor rolipram (10 μM) and the adenosine receptor antagonist CGS-15943 (10 μM) on HDAC activity. […] (b) Direct effect of the MEK inhibitor PD089159 (1 μM) and the p38 MAPK inhibitor SB203580 on theophylline induced HDAC activity.

[2] = system: SLPI production, A549 cells; assay: SLPI production by A549 cells (ELISA); type: cell-based
Method: A549 cells were grown to 50% confluence in Dulbecco's modified medium (DMEM) containing 10% fetal calf serum (FCS) before incubation for 48-72 hr in serura-free media.
Determination of GM-CSF expression was measured by sandwich ELISA (Pharmingen, Lugano, Switzerland) according to the manufacturer's instructions. For immunoassay of SLPI and acetylated histone, polystyrene microtitre plates were coated overnight at 4° C. with sample diluted with hydroxy carbonate (pH 9.6). Plates were blocked for 2 hr with 5 % ovalbumin in PBS. Antibodies against SLPI (R&D Systems Europe, Abingdon, UK), K5, K8, K12 and K16 acetylated histone 4 (Serotec, Oxford, UK) were diluted 1:300-1:1000 and added to each plate. After 1 hr at room temperature plates were washed sequentially with 0.1% Tween20-PBS and incubated with HRP conjugated goat anti-rabbit antibody (DAKO, Cambridge, UK) for 1 hr. Detection was performed with ABTS following Pharmingen instructions. Recombinant human SLPI (R&D Systems Europe) was used as a standard. As a standard for acetylated histone, crude extracted histone from A549 cells incubated with TSA (100 ng/ml) for 6 hr was used, and the value was calculated in units, where 1 unit is equivalent to the absorbance of 50 ng of TSA-treated hyperacetylated histone after subtraction of BSA-induced histone acetylation.

[3] = system: histone deacetylase (HDAC) activity, A549 cells; assay: Histone deacetylation activity in total cellular extracts of treated A549 cells
Method: (B) Effect of Trichostatin A (TSA) on histone deacetylase activity and histone H4 acetylation. Cells were treated with increasing concentrations of TSA for 6 hrs before total cellular proteins were isolated and analysed for deacetylase activity and also histone acetylation by Western blotting using an anti-pan acetylated histone H4 antibody.
Effect of theophylline on histone deacetylase (HDAC) activity in A549 cells. (a) Cells were stimulated with LPS (3 ng/ml) for 24 hours in the presence or absence of theophylline (10^−5 M) or Dex (10^−6 M). Total cellular proteins were extracted and histone deacetylase activity measured. (b) Direct effect of theophylline on HDAC activity. […] Results are expressed as mean±SEM (n=3-5, *p<0.05, **p<0.01).

[4] = system: histone acetylation, A549 cells; assay: Histone acetylation, [3H]-acetate incorporation in whole A549 cells; type: cell-based
From the text: Histones were isolated and separated by SDS-PAGE and [^3H]-acetate incorporated histones were counted and normalised to protein level. […] Data represents mean±SEM of 3 independent experiments. **p<0.01.

[5] = system: p65-associated histone acetylation; assay: p65-immunoprecipitated histone acetylation (IP-HAT assay); type: cell-based
Method: Total cellular proteins were isolated and p65 associated proteins immunoprecipitated under stringent conditions (see methods). The associated histone acetylation activity was measured following incubation of the p65-IP extract with 10 μg free core histones and 0.25 mCi of ^3H-acetyl CoA for 45 minutes.
Histone acetylation experiments were performed as in (A) in the presence of TSA (100 ng/ml).
Extracts were prepared using 100 μl of stringent immunoprecipitation (IP) buffer (50 mM Tris-HCl, pH 8.0, 150 mM NaCl, 1.0% triton X-100, 0.5% NP-40, 0.1% SDS, 0.5% deoxycholate, complete protease inhibitor cocktail (Boehringer-Mannheim)) or mild IP buffer (10 mM Tris-HCl, pH 8.0, 150 mM NaCl, 0.5% NP-40, complete protease inhibitor cocktail (Boehringer-Mannheim)). […] After microcentrifugation, 20 μl of A/G agarose conjugated with 5 μg of antibody were used to precipitate CBP, PCAF, GR or p65 overnight at 4° C. with rotation.
Immune complexes with resin were resuspended in 150 μl of HAT buffer (50 mM Tris-HCl, pH 8.0, 10% glycerol, 1 mM dithiothreitol, 0.1 mM EDTA, complete protease inhibitor cocktail). Typically, 20 μl of free core histone solution extracted from A549 cells (final amount 10 μg) and 30 μl of immunoprecipitate were incubated. Reactions were initiated by the addition of 0.25 mCi of [^3H] acetyl-CoA (5 Ci/mmol)(Amersham) and performed for 45 min at 30° C.

[6] = system: CBP-associated HAT activity; assay: CBP-immunoprecipitated histone acetylation (IP-HAT assay); type: cell-based
Method: […]. Cells were treated as in (A) and CBP immunoprecipitated under stringent conditions (see methods). Histone acetylation was measured as in (A) and results presented as mean±sem of at least 3 independent experiments, *p<0.05.
[…]. Cells were treated as in (A) and CBP immunoprecipitated under mild conditions (see methods). Histone acetylation was measured as in (A). […] Results presented as mean±sem of at least 3 independent experiments, *p<0.05.
Extracts were prepared using 100 μl of stringent immunoprecipitation (IP) buffer (50 mM Tris-HCl, pH 8.0, 150 mM NaCl, 1.0% triton X-100, 0.5% NP-40, 0.1% SDS, 0.5% deoxycholate, complete protease inhibitor cocktail (Boehringer-Mannheim)) or mild IP buffer (10 mM Tris-HCl, pH 8.0, 150 mM NaCl, 0.5% NP-40, complete protease inhibitor cocktail (Boehringer-Mannheim)). The lysis mixture was incubated on ice for 15 min and microfuged for 10 min at 4° C. Extracts were precleared with 20 μl of A/G agarose (a 50:50 mix; Santa Cruz, Santa Cruz, Calif.) and 2 μg of normal IgG. After microcentrifugation, 20 μl of A/G agarose conjugated with 5 μg of antibody were used to precipitate CBP, PCAF, GR or p65 overnight at 4° C. with rotation. […]
IP-HAT assays were performed using a modified method of Ogryzko (Ogryzko, V. V et al (1996) Cell 87:953-959). […] The dried filters were counted in a liquid scintillation counter.

[7] = system: histone H4 lysines K5, K8, K12, K16; assay: Immunocytochemical staining for acetylated histone H4 lysine residues; type: cell-based; details: 6 hr
Method: Immunocytochemical staining for specific histone H4 acetylated lysine residues. […] Results are representative of 4 independent experiments.
Cells were washed with Hanks solution, and air-dried for 30 min at RT. Cells were then fixed in ice-cold acetone-methanol (50/50, w/w) (−20° C.) for 10 min. Slides were air dried and incubated with blocking buffer (20% normal swine serum in PBS, 0.1% saponin)(Dako) for 20 mmn followed by 1 hr incubation with primary antibody solution (PBS, 0.1% saponin, 1% BSA). Antibodies against pan-acetylated H4, H4-K5, H4-K8, H4-K12 and H4-K16 (Serotec) were used at 1:100 to 1:300 dilution. Slides were washed twice and incubated with biotinylated swine anti-rabbit IgG (Dako)(1:200) for 45 min. Slides were washed again before incubation with fluorescein isothiocyante-conjugated streptavidine (1:100) for 45 min. The slides were washed twice more before counterstaining with 20% haematoxyline, and mounting. Stained cells were observed by confocal microscopy. Confocal scanning laser microscopy images were collected with a Leica confocal microscope, equipped with a 488/514 nm dual band argon ion laser. An oil-immersion objective was used and images were collected using TCSNT software.

CBP, PCAF = assay: CBP and PCAF expression in A549 cells (Western blot); type: cell-based; details: 10^−8 and 10^−6M, 6 hrs
From the text: Proteins were extracted and size fractionated by SDS-PAGE and CBP and PCAF detected by Western blotting. Results are representative of 3 independent experiments. […] Immunoreactive bands were detected by ECL.

[8] = system: HDAC activity, BAL macrophages; assay: HDAC activity in BAL macrophages; type: cell-based, human; details: 24 hours, rolipram 10 μM
[9] = system: HAT activity, BAL macrophages; assay: HAT activity in BAL macrophages; details: rolipram 10 μM
Method: HAT activity (a) and HDAC activity (b) were measured as described in the methods. Results are expressed as mean±SEM (n=5).
Fibreoptic bronchoscopy and isolation of BAL macrophages: Subjects attended our bronchoscopy suite at 8.30 am after having fasted from midnight and were pretreated with atropine (0.6 mg iv) and midazolam (5-10 mg iv). Oxygen (31/min) was administered via nasal prongs throughout the procedure and oxygen saturation was monitored with a digital oximeter. Using local anaesthesia with lidocaine (4%) to the upper airways and larynx, a fibreoptic bronchoscope (Olympus BF10) was passed through the nasal passages into the trachea. Bronchoalveolar lavage (BAL) was performed from the right middle lobe using warmed 0.9% NaCl with 4 successive aliquots of 60 mls of 0.9% NaCl. […] Cytospins were prepared and stained with May-Grunwald stain for differential cell counts. Cell viability was assessed using trypan blue exclusion.
After incubation for 10 min at 37° C. cells were stimulated for 6 hr. […] Gels were stained with Coommasie brilliant blue and the core histones (H2A, H2B, H3 and H4) excised. The radioactivity in extracted core histones was determined by liquid scintillation counting and normalised to protein level.

OO [H2O2]
GM-CSF release, IL-1β plus H2O2 ([1]; A549 cells): 2054 ± 342 pg/mL

CC(C)Cn1c(=O)n(C)c(=O)c2[nH]cnc21 [IBMX]
direct effect on HAT activity (HAT activity): no direct effect | direct effect on HDAC activity (HDAC activity): no direct effect

COc1cccc(-c2cc(=O)c3ccccc3o2)c1N [PD089059]
effect on theophylline-induced increased HDAC activity (HDAC activity): failed to have any effect

C[S+]([O-])c1ccc(-c2nc(-c3ccncc3)c(-c3ccc(F)cc3)[nH]2)cc1 (centres unmarked) [SB203580]
effect on theophylline-induced increased HDAC activity (HDAC activity): significantly inhibited

CC(/C=C/C(=O)NO)=C\[C@@H](C)C(=O)c1ccc(N(C)C)cc1 [TSA, trichostatin A]
SLPI production ([2]; IL-1β 1 ng/ml after pretreatment with TSA 1 ng/ml, versus 6.0±0.5): 8.2 ± 0.3 ng/mL | IC50, decrease in HDAC activity ([3]; A549 cells, 6 hrs): 1.1 ng/mL (≈ 3.64 nM) | HDAC activity in A549 cells ([3]; TSA, increasing concentrations, 6 hrs, decrease from 112±21): 11±3 dpm/ng protein | IL-1β-induced GM-CSF release ([1]; IL-1β 1 ng/ml plus TSA 1 ng/ml, versus 157±6 without TSA): 233 ± 12 ng/mL | effect of TSA on dexamethasone (10^−6 M) suppression of GM-CSF release ([1]; IL-1β plus H2O2): unable to block | effect of TSA on suppression of GM-CSF release by combined treatment ([1]; IL-1β plus H2O2): blocked | effect of TSA pre-treatment on repression of GM-CSF release by combined treatment ([1]; IL-1β-stimulated): blocked | GM-CSF release in the presence of TSA ([1]; IL-1β-stimulated, with or without dexamethasone 10^−6 M): 969 ± 84 pg/mL | basal histone acetylation with TSA ([4]; TSA 1 ng/ml): 162±21 dpm/μg protein | dexamethasone-induced histone acetylation with TSA ([4]; TSA 1 ng/ml, versus 71±9): 984±50 dpm/μg protein | IL-1β-stimulated histone acetylation with TSA ([4]; TSA 1 ng/ml, versus 137±15): 1543±143 dpm/μg protein | IL-1β plus dexamethasone (10^−10 M)-stimulated histone acetylation with TSA ([4]; TSA 100 ng/ml, versus 37±5): 435±28 dpm/μg protein | IL-1β-stimulated histone acetylation with TSA ([4]; TSA 100 ng/ml, versus 71±9): 1543±143 dpm/μg protein

C[C@@H]1C[C@H]2[C@@H]3CCC4=CC(=O)C=C[C@]4(C)[C@@]3(F)[C@@H](O)C[C@]2(C)[C@@]1(O)C(=O)CO [dexamethasone]
IC50, p65-associated IL-1β-induced histone acetylation [5]: 0.4 nM | IC50, p65-associated histone acetylation in the presence of TSA ([5]; TSA 100 ng/ml): 90 nM | EC50 ([2]; Homo sapiens, A549, read-out: EC50, induction of SLPI): 9 nM | concentration of maximum SLPI induction ([2]; dexamethasone alone): 1 µM | total cell HDAC activity after IL-1β plus H2O2 ([3]; 4 hrs, theophylline pre-treatment 10^−5 M, 10 min): no effect | IC50 ([6]; CBP immunoprecipitated under stringent IP conditions, read-out: IC50, IL-1β-stimulated CBP-dependent histone acetylation): 8 nM | IC50, IL-1β-induced CBP-associated histone acetylation ([6]; CBP isolated under mild IP conditions): 0.04 nM | acetylated histone H4 K5 [7]: 53±9 % positive nuclei | acetylated histone H4 K16 [7]: 36±16 % positive nuclei | concentration giving maximum induction of histone acetylation ([4]; between 4-8 hr): ≥ 10^−8 M | basal histone acetylation ([4]; dexamethasone 10^−10 M alone, no effect): 23.7±4.1 dpm/μg protein | IL-1β plus dexamethasone-stimulated histone acetylation ([4]; dexamethasone 10^−10 M, no TSA): 37±5 dpm/μg protein | dexamethasone-induced histone acetylation ([4]; without TSA): 71±9 dpm/μg protein | CBP or PCAF expression (CBP, PCAF): no effect

COc1ccc(C2CNC(=O)C2)cc1OC1CCCC1 (centres unmarked) [rolipram]
HDAC activity [8]: no effect | direct effect on HAT activity (HAT activity): no direct effect | HAT activity [9]: no effect | direct effect on HDAC activity (HDAC activity): no direct effect

IL-1β: interleukin used to stimulate A549 cells (1 ng/ml)
increase of p65-immunoprecipitated histone acetylation ([5]; IL-1β stimulation): 9-10 fold | SLPI production ([2]; IL-1β 1 ng/ml, versus 1.2±0.3 control): 6.0 ± 0.5 ng/mL | acetylated histone H4 K8 [7]: 42±15 % positive nuclei | acetylated histone H4 K12 [7]: 37±4 % positive nuclei | IL-1β-stimulated GM-CSF release ([1]; A549 cells): 714 ± 94 pg/mL | increase in GM-CSF release ([1]; IL-1β 1 ng/ml): 30 fold | GM-CSF within the culture supernatant ([1]; IL-1β 1 ng/ml, 6 hr, untreated cells 30±10): 157 ± 6 ng/mL | histone acetylation, IL-1β alone ([4]; IL-1β 1 ng/ml, whole cell incorporation): 137±15 dpm/μg protein and 71±9 dpm/μg protein | histone acetylation 30 min after IL-1β-stimulation ([4]; versus 18±4): 41±6 dpm/μg protein | increase in histone acetylation ([4]; whole cell): 4-5 fold and 4 fold

lipopolysaccharide [LPS]
reduction of total cell HDAC activity ([3]; LPS, 6 hrs): 30%
